# Test results as given in paper PMC11842024, “Reversible male contraception by targeted inhibition of serine/threonine kinase 33” (Science (New York, N.Y.), 2024).
# System: not listed separately
# Assay: Metabolic stability assay in liver microsomes (MLM)
# Assay type: in vitro ADME, mouse
# Conditions: mouse, liver microsomes, 2.0 µM, 0.5 mg protein/mL, NADPH; data >60 min is an extrapolated estimate; read-out: Metabolic stability MLM, t1/2
# Description: (§1) Metabolic stability assay in liver microsomes. The stabilities of CDD-2110, CDD-2211, CDD-2212, CDD-2807, and CDD-3348 in liver microsomes with/without Uridine Diphosphate Glucuronic Acid (UDP-GA, a cofactor of UDP-glucuronosyltransferases) were performed and half-life was calculated as previously reported (36). Briefly, each CDD compound (2.0 μM) was incubated in the mouse or human liver microsomes (0.5 mg protein/mL) at 37°C in 1× PBS fortified with NADPH (1.0 mM) and with/without UDP-GA (2.5 mM). Alamethicin (25 µg/mL) as a pore forming agent was used for the glucuronidation (Table S2A). The samples were collected at specific time-points 0, 30, and 60 min in duplicate. The reactions were terminated by adding equivalent volume of ice-cold methanol (CH3OH) and vortexed. After centrifugation at 15000 g for 10 min, 3.0 μL of the supernatant was analyzed by Thermo TSQ Quantis MS coupled with a Thermo Vanquish UHPLC (San Jose, CA) equipped with a Luna C18 column (1 mm × 50 mm, 1.6 µm, Phenomenex, Torrance, CA). The column temperature was maintained at 40°C. CDD-2807 was monitored under the selected reaction monitoring (SRM) mode coupled with a positive electrospray ionization (ESI) source. The SRM ion pairs were 447→321 for CDD-2807.
row,half-life at 2 µM,SMILES
1,7 min,CN(C)[C@@H]1CCN(C(=O)c2ccc3[nH]nc(C#Cc4ccccc4-c4ccccc4)c3c2)C1 [CDD-2211]
2,14 min,CNC(=O)CCC1CCN(C(=O)C2CCN(C3CCN(C(=O)c4ccc5[nH]nc(C#Cc6ccccc6-c6ccccc6)c5c4)C3)CC2)CC1 (stereo not shown) [CDD-3348]

# System: not listed separately
# Assay: Metabolic stability assay in liver microsomes (HLM)
# Assay type: in vitro ADME, human
# Conditions: human, liver microsomes, 2.0 µM, 0.5 mg protein/mL, NADPH; data >60 min is an extrapolated estimate; read-out: Metabolic stability HLM, t1/2
# Description: as §1
row,half-life at 2 µM,SMILES
1,10 min,CN(C)[C@@H]1CCN(C(=O)c2ccc3[nH]nc(C#Cc4ccccc4-c4ccccc4)c3c2)C1 [CDD-2211]
2,13 min,CNC(=O)CCC1CCN(C(=O)C2CCN(C3CCN(C(=O)c4ccc5[nH]nc(C#Cc6ccccc6-c6ccccc6)c5c4)C3)CC2)CC1 (stereo not shown) [CDD-3348]

# Biological target: T1, CLK1 (Homo sapiens, UniProt P49759)
# T1 sequence (P49759 whole entry): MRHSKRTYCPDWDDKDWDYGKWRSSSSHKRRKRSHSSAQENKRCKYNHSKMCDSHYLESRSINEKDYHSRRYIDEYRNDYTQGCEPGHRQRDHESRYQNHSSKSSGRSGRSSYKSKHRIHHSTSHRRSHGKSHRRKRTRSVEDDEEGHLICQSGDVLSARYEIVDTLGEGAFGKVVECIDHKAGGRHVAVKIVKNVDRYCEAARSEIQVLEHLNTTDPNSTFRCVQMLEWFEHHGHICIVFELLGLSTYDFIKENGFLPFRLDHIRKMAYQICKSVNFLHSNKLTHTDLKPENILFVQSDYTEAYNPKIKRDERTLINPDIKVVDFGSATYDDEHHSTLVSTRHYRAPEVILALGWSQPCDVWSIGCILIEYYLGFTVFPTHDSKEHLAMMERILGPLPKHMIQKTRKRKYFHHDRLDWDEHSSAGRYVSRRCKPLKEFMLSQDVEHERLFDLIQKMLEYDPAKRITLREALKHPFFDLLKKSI
# Assay: NanoBRET target engagement intracellular kinase assay
# Assay type: cell-based
# Parameters: host or cells: HEK293 (HEK293T cultured)
# Conditions: HEK293 cells, 2 hours incubation
# Description: (§2) NanoBRET Target Engagement intracellular kinase assay. HEK293T cells were cultured in […]
# (§3) The cell line underwent authentication by short tandem repeat (STR) profiling at Cytogenetics and Cell Authentication Core (CCAC) at MD Anderson Cancer Center. NanoBRET Target Engagement intracellular kinase assay, K-10 assay (Cat. # N2641), K-9 assay (Cat. # N2631), transfection reagent FuGENE HD (Cat. # E2311), transfection carrier DNA (Cat. # E4881), NanoLuc-STK33 fusion vector (Cat. # NV2111), NanoLuc-RET fusion vector (Cat. # NV1951), NanoLuc-CLK1 fusion vector (Cat. # NV1131), NanoLuc-CLK2 fusion vector (Cat. # NV1141), and NanoLuc-CLK4 fusion vector (Cat. # NV1151) were purchased from Promega. The measurement of test compound engagement with cellular target protein was performed in a 384-well format according to manufacturer’s instructions. HEK293 cells were transiently transfected with NanoLuc (STK33, RET, CLK1, CLK2, and CLK4) fusion vectors. After 36 hours of transfection, cells were treated with a fixed concentration of tracer (recommended by Promega) followed by compounds (inhibitors) for 2 hours of incubation. To determine the test compound […]
# (§4) 0.4 nM at a fixed tracer concentration. Staurosporine was measured in parallel as a positive control.
# (§5) Freshly prepared NanoBRET Nano-Glo substrate plus extracellular NanoLuc inhibitor was then added to initiate the subsequent bioluminescence resonance energy transfer (BRET) measurements using a CLARIOstar Plus BMG LABTECH plate reader. Data analysis was done by measuring the ratio of acceptor emission to donor emission (BRET ratio) and normalized by subtracting no-tracer-control-background. IC50 values were obtained by nonlinear regression using a four-parameter equation in GraphPad Prism 7 (San Diego, CA).
row,IC50,SMILES
1,0.115 µM,CN(C)[C@@H]1CCN(C(=O)c2ccc3[nH]nc(C#Cc4ccccc4-c4ccccc4)c3c2)C1 [CDD-2211]
2,6.73 µM,CNC(=O)CCC1CCN(C(=O)C2CCN(C3CCN(C(=O)c4ccc5[nH]nc(C#Cc6ccccc6-c6ccccc6)c5c4)C3)CC2)CC1 (stereo not shown) [CDD-3348]

# Same assay, conditions: selectivity vs STK33
row,Fold NanoBRET IC50 CLK1 over STK33 (in parentheses),SMILES
1,23 X,CN(C)[C@@H]1CCN(C(=O)c2ccc3[nH]nc(C#Cc4ccccc4-c4ccccc4)c3c2)C1 [CDD-2211]
2,40 X,CNC(=O)CCC1CCN(C(=O)C2CCN(C3CCN(C(=O)c4ccc5[nH]nc(C#Cc6ccccc6-c6ccccc6)c5c4)C3)CC2)CC1 (stereo not shown) [CDD-3348]

# Biological target: T2, CLK2 (Homo sapiens, UniProt P49760)
# T2 sequence (P49760 whole entry): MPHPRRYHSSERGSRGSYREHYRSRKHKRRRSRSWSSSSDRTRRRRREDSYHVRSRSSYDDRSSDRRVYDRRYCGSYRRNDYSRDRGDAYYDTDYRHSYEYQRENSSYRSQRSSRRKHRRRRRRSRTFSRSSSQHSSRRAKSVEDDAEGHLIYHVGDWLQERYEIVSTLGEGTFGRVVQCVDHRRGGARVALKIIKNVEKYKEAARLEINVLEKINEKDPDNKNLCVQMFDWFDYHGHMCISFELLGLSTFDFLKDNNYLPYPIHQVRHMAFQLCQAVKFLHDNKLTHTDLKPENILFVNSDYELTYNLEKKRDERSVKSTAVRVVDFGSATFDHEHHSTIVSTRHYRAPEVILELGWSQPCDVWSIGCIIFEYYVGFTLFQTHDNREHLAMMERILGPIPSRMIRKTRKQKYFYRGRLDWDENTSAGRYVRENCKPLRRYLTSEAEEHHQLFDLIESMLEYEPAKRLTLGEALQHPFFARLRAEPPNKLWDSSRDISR
# Assay: as above
# Assay type: cell-based
# Parameters: host or cells: HEK293 (HEK293T cultured)
# Conditions: HEK293 cells, 2 hours incubation
# Description: as §2, §3, §4, §5
row,IC50,SMILES
1,48 nM,CN(C)[C@@H]1CCN(C(=O)c2ccc3[nH]nc(C#Cc4ccccc4-c4ccccc4)c3c2)C1 [CDD-2211]
2,2530 nM,CNC(=O)CCC1CCN(C(=O)C2CCN(C3CCN(C(=O)c4ccc5[nH]nc(C#Cc6ccccc6-c6ccccc6)c5c4)C3)CC2)CC1 (stereo not shown) [CDD-3348]

# Same assay, conditions: selectivity vs STK33
row,Fold NanoBRET IC50 CLK2 over STK33 (in parentheses),SMILES
1,10 X,CN(C)[C@@H]1CCN(C(=O)c2ccc3[nH]nc(C#Cc4ccccc4-c4ccccc4)c3c2)C1 [CDD-2211]
2,15 X,CNC(=O)CCC1CCN(C(=O)C2CCN(C3CCN(C(=O)c4ccc5[nH]nc(C#Cc6ccccc6-c6ccccc6)c5c4)C3)CC2)CC1 (stereo not shown) [CDD-3348]

# Biological target: T3, CLK4 (Homo sapiens, UniProt Q9HAZ1)
# T3 sequence (Q9HAZ1 whole entry): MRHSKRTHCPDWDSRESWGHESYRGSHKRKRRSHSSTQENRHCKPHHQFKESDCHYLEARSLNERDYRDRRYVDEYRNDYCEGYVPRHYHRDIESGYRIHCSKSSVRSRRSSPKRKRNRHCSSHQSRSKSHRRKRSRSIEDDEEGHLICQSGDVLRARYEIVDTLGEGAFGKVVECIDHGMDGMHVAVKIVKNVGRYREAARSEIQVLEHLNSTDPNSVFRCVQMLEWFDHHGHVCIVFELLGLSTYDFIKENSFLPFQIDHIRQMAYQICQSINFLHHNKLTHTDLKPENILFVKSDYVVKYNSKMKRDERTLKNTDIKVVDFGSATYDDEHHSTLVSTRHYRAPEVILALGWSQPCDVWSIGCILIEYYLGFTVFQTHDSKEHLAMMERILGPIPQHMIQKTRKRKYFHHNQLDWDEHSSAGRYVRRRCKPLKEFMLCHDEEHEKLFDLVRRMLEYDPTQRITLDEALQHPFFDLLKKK
# Assay: as above
# Assay type: cell-based
# Parameters: host or cells: HEK293 (HEK293T cultured)
# Conditions: HEK293 cells, 2 hours incubation
# Description: as §2, §3, §4, §5
row,IC50,SMILES
1,187 nM,CN(C)[C@@H]1CCN(C(=O)c2ccc3[nH]nc(C#Cc4ccccc4-c4ccccc4)c3c2)C1 [CDD-2211]
2,3850 nM,CNC(=O)CCC1CCN(C(=O)C2CCN(C3CCN(C(=O)c4ccc5[nH]nc(C#Cc6ccccc6-c6ccccc6)c5c4)C3)CC2)CC1 (stereo not shown) [CDD-3348]

# Same assay, conditions: selectivity vs STK33
row,Fold NanoBRET IC50 CLK4 over STK33 (in parentheses),SMILES
1,37 X,CN(C)[C@@H]1CCN(C(=O)c2ccc3[nH]nc(C#Cc4ccccc4-c4ccccc4)c3c2)C1 [CDD-2211]
2,23 X,CNC(=O)CCC1CCN(C(=O)C2CCN(C3CCN(C(=O)c4ccc5[nH]nc(C#Cc6ccccc6-c6ccccc6)c5c4)C3)CC2)CC1 (stereo not shown) [CDD-3348]

# Biological target: T4, RET (Homo sapiens, UniProt P07949)
# T4 sequence (P07949 29-1114): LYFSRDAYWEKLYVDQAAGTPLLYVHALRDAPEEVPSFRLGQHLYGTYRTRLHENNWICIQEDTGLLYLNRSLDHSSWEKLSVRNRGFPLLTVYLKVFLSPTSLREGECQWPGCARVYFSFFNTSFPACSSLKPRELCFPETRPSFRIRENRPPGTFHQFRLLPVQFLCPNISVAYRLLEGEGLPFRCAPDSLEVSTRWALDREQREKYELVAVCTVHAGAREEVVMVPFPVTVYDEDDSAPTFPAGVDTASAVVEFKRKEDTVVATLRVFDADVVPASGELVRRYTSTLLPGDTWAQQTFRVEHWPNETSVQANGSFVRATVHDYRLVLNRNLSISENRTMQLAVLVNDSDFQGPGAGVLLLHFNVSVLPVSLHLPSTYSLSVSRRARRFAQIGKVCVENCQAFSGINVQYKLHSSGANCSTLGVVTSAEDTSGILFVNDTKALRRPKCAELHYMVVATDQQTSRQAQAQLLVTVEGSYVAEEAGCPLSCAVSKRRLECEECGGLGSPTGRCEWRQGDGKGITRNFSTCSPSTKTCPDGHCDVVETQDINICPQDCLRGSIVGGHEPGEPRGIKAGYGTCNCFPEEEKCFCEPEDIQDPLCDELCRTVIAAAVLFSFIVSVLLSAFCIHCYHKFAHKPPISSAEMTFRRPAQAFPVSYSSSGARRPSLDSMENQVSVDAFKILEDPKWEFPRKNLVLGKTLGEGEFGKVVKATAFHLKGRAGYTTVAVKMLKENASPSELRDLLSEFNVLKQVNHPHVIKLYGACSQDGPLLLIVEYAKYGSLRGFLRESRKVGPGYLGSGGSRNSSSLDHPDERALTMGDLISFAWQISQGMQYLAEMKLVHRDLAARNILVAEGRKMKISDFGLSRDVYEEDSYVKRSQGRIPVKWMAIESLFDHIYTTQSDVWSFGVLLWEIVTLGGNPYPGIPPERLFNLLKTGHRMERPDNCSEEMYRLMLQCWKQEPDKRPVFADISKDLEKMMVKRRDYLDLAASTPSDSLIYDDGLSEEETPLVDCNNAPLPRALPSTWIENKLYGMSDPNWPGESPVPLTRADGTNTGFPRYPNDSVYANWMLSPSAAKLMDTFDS
# Assay: as above
# Assay type: cell-based
# Parameters: host or cells: HEK293 (HEK293T cultured)
# Conditions: HEK293 cells, 2 hours incubation
# Description: as §2, §3, §4, §5
row,IC50,SMILES
1,0.078 µM,CN(C)[C@@H]1CCN(C(=O)c2ccc3[nH]nc(C#Cc4ccccc4-c4ccccc4)c3c2)C1 [CDD-2211]
2,6.41 µM,CNC(=O)CCC1CCN(C(=O)C2CCN(C3CCN(C(=O)c4ccc5[nH]nc(C#Cc6ccccc6-c6ccccc6)c5c4)C3)CC2)CC1 (stereo not shown) [CDD-3348]

# Same assay, conditions: selectivity vs STK33
row,Fold NanoBRET IC50 RET over STK33 (in parentheses),SMILES
1,16 X,CN(C)[C@@H]1CCN(C(=O)c2ccc3[nH]nc(C#Cc4ccccc4-c4ccccc4)c3c2)C1 [CDD-2211]
2,38 X,CNC(=O)CCC1CCN(C(=O)C2CCN(C3CCN(C(=O)c4ccc5[nH]nc(C#Cc6ccccc6-c6ccccc6)c5c4)C3)CC2)CC1 (stereo not shown) [CDD-3348]

# Biological target: T5, STK33 (Homo sapiens, UniProt Q9BYT3)
# T5 sequence (Q9BYT3 whole entry): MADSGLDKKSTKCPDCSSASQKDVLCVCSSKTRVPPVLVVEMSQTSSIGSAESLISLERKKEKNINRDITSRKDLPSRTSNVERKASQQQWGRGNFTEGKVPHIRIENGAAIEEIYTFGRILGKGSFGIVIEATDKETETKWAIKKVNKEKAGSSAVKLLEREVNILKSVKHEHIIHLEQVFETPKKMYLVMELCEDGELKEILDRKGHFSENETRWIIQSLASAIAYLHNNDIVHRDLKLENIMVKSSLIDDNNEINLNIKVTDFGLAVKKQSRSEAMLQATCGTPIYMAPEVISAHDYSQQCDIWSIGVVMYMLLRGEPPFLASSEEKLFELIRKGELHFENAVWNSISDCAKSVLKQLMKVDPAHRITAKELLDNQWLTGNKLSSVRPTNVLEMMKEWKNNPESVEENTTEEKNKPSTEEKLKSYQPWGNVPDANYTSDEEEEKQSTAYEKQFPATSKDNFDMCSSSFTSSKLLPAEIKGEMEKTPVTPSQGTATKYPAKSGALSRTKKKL
# Assay: as above
# Assay type: cell-based
# Parameters: host or cells: HEK293 (HEK293T cultured)
# Conditions: not given
# Description: as §2, §3, §4, §5
row,"selectivity toward STK33 compared to CLK1, CLK2, CLK4, and RET",SMILES
1,> 10 fold,CN(C)[C@@H]1CCN(C(=O)c2ccc3[nH]nc(C#Cc4ccccc4-c4ccccc4)c3c2)C1 [CDD-2211]
2,> 10 fold,CNC(=O)CCC1CCN(C(=O)C2CCN(C3CCN(C(=O)c4ccc5[nH]nc(C#Cc6ccccc6-c6ccccc6)c5c4)C3)CC2)CC1 (stereo not shown) [CDD-3348]

# Same assay, conditions: HEK293 cells, 2 hours incubation
row,IC50,SMILES
1,5 nM,CN(C)[C@@H]1CCN(C(=O)c2ccc3[nH]nc(C#Cc4ccccc4-c4ccccc4)c3c2)C1 [CDD-2211]
2,169 nM,CNC(=O)CCC1CCN(C(=O)C2CCN(C3CCN(C(=O)c4ccc5[nH]nc(C#Cc6ccccc6-c6ccccc6)c5c4)C3)CC2)CC1 (stereo not shown) [CDD-3348]

# Biological target: T5, STK33
# Assay: LanthaScreen binding assay (ThermoFisher SelectScreen)
# Parameters: purchased SelectScreen Services (ThermoFisher)
# Conditions: not given
# From the text: (§6) In vitro biochemical assays. Several small molecule assays were outsourced to SelectScreen Services (ThermoFisher) for STK33 and for off-target kinases (data sets are available on demand).
# (§7) These assays are LanthaScreen (binding assay) and Z’-LYTE (activity assay). Dose-responses were done with at least 5 different concentrations in duplicates, and parameters were optimized by calculations described below and provided with standard errors.
# (§8) Calculation of Kd values for kinase inhibitors that bind to the ATP pocket of a kinase from LanthaScreen binding data. DynaFit (71) was used to fit complex equilibria where a tracer is displaced by a dilution series of a kinase inhibitor. This method relies on the concentration of inhibitor, as well as the concentration of kinase and tracer, and Kd of the tracer. The latter three parameters are tabulated by ThermoFisher for each kinase in the LanthaScreen assay panel. […]
# Since Kd and Ki values are defined the same way, in other words, Kd = [E] [I] / [EI] = Ki, Kd and Ki values can be compared. […]
row,Kd,SMILES
1,0.018 nM,CN(C)[C@@H]1CCN(C(=O)c2ccc3[nH]nc(C#Cc4ccccc4-c4ccccc4)c3c2)C1 [CDD-2211]
2,0.06 nM,CNC(=O)CCC1CCN(C(=O)C2CCN(C3CCN(C(=O)c4ccc5[nH]nc(C#Cc6ccccc6-c6ccccc6)c5c4)C3)CC2)CC1 (stereo not shown) [CDD-3348]

# Biological target: T3, CLK4
# Assay: as above
# Parameters: purchased SelectScreen Services (ThermoFisher)
# Conditions: not given
# From the text: as §6, §7, §8
row,Kd,SMILES
1,2.5 ± 0.2 nM,CN(C)[C@@H]1CCN(C(=O)c2ccc3[nH]nc(C#Cc4ccccc4-c4ccccc4)c3c2)C1 [CDD-2211]
2,26.2 ± 1.5 nM,CNC(=O)CCC1CCN(C(=O)C2CCN(C3CCN(C(=O)c4ccc5[nH]nc(C#Cc6ccccc6-c6ccccc6)c5c4)C3)CC2)CC1 (stereo not shown) [CDD-3348]

# Biological target: T1, CLK1
# Assay: Z'-LYTE activity assay (ThermoFisher SelectScreen)
# Assay type: biochemical
# Parameters: purchased SelectScreen Services (ThermoFisher)
# Conditions: [ATP] = Kmapp
# From the text: as §6
# (§9) These assays are LanthaScreen (binding assay) and Z’-LYTE (activity assay). Dose-responses were done with at least 5 different concentrations in duplicates, and parameters were optimized by calculations described below and provided with standard errors. […]
# (§10) Calculation of Ki values for kinase inhibitors from Z’-LYTE inhibition data. The Morrison equation with [ATP] = Kmapp for competitive inhibition (GraphPad Prism 7, San Diego, CA) was used to get Ki values. Since Kd and Ki values are defined the same way, in other words, Kd = [E] [I] / [EI] = Ki, Kd and Ki values can be compared. […]
row,Ki,SMILES
1,38.8 ± 5.5 nM,CN(C)[C@@H]1CCN(C(=O)c2ccc3[nH]nc(C#Cc4ccccc4-c4ccccc4)c3c2)C1 [CDD-2211]
2,477 ± 34 nM,CNC(=O)CCC1CCN(C(=O)C2CCN(C3CCN(C(=O)c4ccc5[nH]nc(C#Cc6ccccc6-c6ccccc6)c5c4)C3)CC2)CC1 (stereo not shown) [CDD-3348]

# Biological target: T2, CLK2
# Assay: Z'-LYTE activity assay (ThermoFisher SelectScreen)
# Assay type: biochemical
# Parameters: purchased SelectScreen Services (ThermoFisher)
# Conditions: [ATP] = Kmapp
# From the text: as §6, §9, §10
row,Ki,SMILES
1,5.4 ± 0.4 nM,CN(C)[C@@H]1CCN(C(=O)c2ccc3[nH]nc(C#Cc4ccccc4-c4ccccc4)c3c2)C1 [CDD-2211]
2,58.3 ± 3.3 nM,CNC(=O)CCC1CCN(C(=O)C2CCN(C3CCN(C(=O)c4ccc5[nH]nc(C#Cc6ccccc6-c6ccccc6)c5c4)C3)CC2)CC1 (stereo not shown) [CDD-3348]

# Biological target: T4, RET
# Assay: Z'-LYTE activity assay (ThermoFisher SelectScreen)
# Assay type: biochemical
# Parameters: purchased SelectScreen Services (ThermoFisher)
# Conditions: [ATP] = Kmapp
# From the text: as §6, §9, §10
row,Ki,SMILES
1,0.47 ± 0.05 nM,CN(C)[C@@H]1CCN(C(=O)c2ccc3[nH]nc(C#Cc4ccccc4-c4ccccc4)c3c2)C1 [CDD-2211]
2,5.6 ± 0.5 nM,CNC(=O)CCC1CCN(C(=O)C2CCN(C3CCN(C(=O)c4ccc5[nH]nc(C#Cc6ccccc6-c6ccccc6)c5c4)C3)CC2)CC1 (stereo not shown) [CDD-3348]
